# Measured values reported in PMC11255275, “Structural insights into the triple agonism at GLP-1R, GIPR and GCGR manifested by retatrutide” (Cell Discovery, 2024).
# How the values were obtained:
# Type in all cases: cell-based
# GLP-1R mutants [1] = biological target: T1, GLP-1R mutants (Homo sapiens, UniProt P43220, W214A); test: cAMP accumulation, single-point mutated GLP-1R; details: GLP-1R W214(ECL1)A; HEK-293T, 40 min, TR-FRET; mean ± S.E.M., n at least 3
# T1 construct: expressed in transfected cells; host or cells: HEK-293T
# T1 sequence (P43220 24-463 W214A): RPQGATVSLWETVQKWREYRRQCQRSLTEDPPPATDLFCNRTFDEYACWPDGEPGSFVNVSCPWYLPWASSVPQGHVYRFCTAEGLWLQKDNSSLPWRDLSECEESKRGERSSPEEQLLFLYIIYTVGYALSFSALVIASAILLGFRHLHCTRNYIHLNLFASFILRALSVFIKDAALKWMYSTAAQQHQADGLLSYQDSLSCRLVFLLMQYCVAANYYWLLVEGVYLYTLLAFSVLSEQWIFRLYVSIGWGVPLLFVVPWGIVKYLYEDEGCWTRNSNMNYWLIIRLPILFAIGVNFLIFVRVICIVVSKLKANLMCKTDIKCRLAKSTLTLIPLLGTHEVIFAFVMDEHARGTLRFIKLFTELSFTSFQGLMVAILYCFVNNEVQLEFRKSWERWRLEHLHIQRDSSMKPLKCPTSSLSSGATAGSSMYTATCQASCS
# Procedure: (§1) HEK-293T cells were maintained at 37°C in 5% CO2 incubator and seeded onto 6-well cell […]
# (§2) culture plates before transfection. After overnight culture, the cells were transiently transfected […]
# (§3) with various constructs using Lipofectamine 2000 transfection reagent (Invitrogen). After 24 h, […]
# (§4) the transfected cells were seeded onto 384-microtiter plates at a density of 3,000 cells per well […]
# (§5) in stimulation buffer (HBSS supplemented with 5 mM HEPES, 0.1% (w/v) casein and 0.5 mM […]
# (§6) 3-isobutyl-1-methylxanthine). Different concentrations of retatrutide in stimulation buffer were […]
# (§7) added, and the stimulation lasted for 40 min. The reaction was stopped by addition of cAMP […]
# (§8) detection buffer containing Eu-cAMP tracer and ULight-anti-cAMP. Plates were then incubated for […]
# (§9) 60 min at RT. Time-resolved FRET signals were measured at 620 nm and 665 nm, respectively, by […]
# (§10) an EnVision multilabel plate reader (PerkinElmer). Data were analyzed in GraphPad PRISM 9.5 […]
# (§11) and all values were normalized to that of the wild-type (WT).
# (§12) Supplementary Fig. 5 Effects of receptor mutation on retatrutide-induced cAMP […]
# (§13) accumulation. a-c, Signaling profiles of GLP-1R (a), GIPR (b) and GCGR (c) mutants. cAMP […]
# (§14) accumulation was measured in wild-type (WT) and single-point mutated GLP-1R, GIPR or […]
# (§15) GCGR expressing HEK-293T cells. cAMP levels were normalized to the maximum response […]
# (§16) of the WT and dose-response curves were analyzed using a three-parameter logistic equation.
# (§17) Data were generated and graphed as means ± S.E.M. of at least three independent experiments performed in quadruplicate.
# (§18) (1 picture or pasted object on this page, not shown here)
# (§19) Supplementary Ta b l e S 5 Effects of the ligand-binding pocket residue mutation on retatrutide- […]
# (§20) induced cAMP signaling at GLP-1R, GIPR or GCGR. […]
# (§21) cAMP levels were normalized to the maximum response of the wild-type (WT) and dose-response […]
# (§22) curves were analyzed using a three-parameter logistic equation to obtain pEC50 and Emax values. The […]
# (§23) experiments were carried out independently at least three times. Data shown are means ± S.E.M. One- […]
# (§24) way ANOVA was used to determine statistical difference. N.D., values that could not be determined due […]
# (§25) to incomplete curve fits. *P< 0.05, **P< 0.01, ***P< 0.001 and ****P<0.0001.
# GLP-1R mutants [2] = biological target: T2, GLP-1R mutants (Homo sapiens, UniProt P43220, Y145Q); test: cAMP accumulation, single-point mutated GLP-1R; details: GLP-1R Y145(1.40b)Q, HEK-293T, 40 min, TR-FRET, mean ± S.E.M., n at least 3
# T2 construct: expressed in transfected cells; host or cells: HEK-293T
# T2 sequence (P43220 24-463 Y145Q): as the sequence (P43220 24-463 W214A) above, with Y122Q, A191W counted along it
# Procedure: as §1, §2, §3, §4, §5, §6, §7, §8, §9, §10, §11, §12, §13, §14, §15, §16, §17, §18, §19, §20, §21, §22, §23, §24, §25
# GLP-1R mutants [3] = biological target: T3, GLP-1R mutants (Homo sapiens, UniProt P43220, W91A); test: cAMP accumulation, single-point mutated GLP-1R; details: GLP-1R W91(ECD)A, HEK-293T, 40 min, TR-FRET, mean ± S.E.M., n at least 3
# T3 construct: expressed in transfected cells; host or cells: HEK-293T
# T3 sequence (P43220 24-463 W91A): as the sequence (P43220 24-463 W214A) above, with W68A, A191W counted along it
# Procedure: as §1, §2, §3, §4, §5, §6, §7, §8, §9, §10, §11, §12, §13, §14, §15, §16, §17, §18, §19, §20, §21, §22, §23, §24, §25
# GLP-1R mutants [4] = biological target: T4, GLP-1R mutants (Homo sapiens, UniProt P43220, W39A); test: cAMP accumulation, single-point mutated GLP-1R; details: GLP-1R W39(ECD)A, HEK-293T, 40 min, TR-FRET, mean ± S.E.M., n at least 3
# T4 construct: expressed in transfected cells; host or cells: HEK-293T
# T4 sequence (P43220 24-463 W39A): as the sequence (P43220 24-463 W214A) above, with W16A, A191W counted along it
# Procedure: as §1, §2, §3, §4, §5, §6, §7, §8, §9, §10, §11, §12, §13, §14, §15, §16, §17, §18, §19, §20, §21, §22, §23, §24, §25
# GLP-1R mutants [5] = biological target: T5, GLP-1R mutants (Homo sapiens, UniProt P43220, Y205A); test: cAMP accumulation, single-point mutated GLP-1R; details: GLP-1R Y205(2.75b)A, HEK-293T, 40 min, TR-FRET, mean ± S.E.M., n at least 3
# T5 construct: expressed in transfected cells; host or cells: HEK-293T
# T5 sequence (P43220 24-463 Y205A): as the sequence (P43220 24-463 W214A) above, with Y182A, A191W counted along it
# Procedure: as §1, §2, §3, §4, §5, §6, §7, §8, §9, §10, §11, §12, §13, §14, §15, §16, §17, §18, §19, §20, §21, §22, §23, §24, §25
# GIPR = biological target: T6, GIPR (Homo sapiens, UniProt P48546); test: cAMP accumulation, wild-type GIPR; details: HEK-293T, 40 min, TR-FRET, mean ± S.E.M.
# T6 construct: expressed in transfected cells; host or cells: HEK-293T
# T6 sequence (P48546 22-466): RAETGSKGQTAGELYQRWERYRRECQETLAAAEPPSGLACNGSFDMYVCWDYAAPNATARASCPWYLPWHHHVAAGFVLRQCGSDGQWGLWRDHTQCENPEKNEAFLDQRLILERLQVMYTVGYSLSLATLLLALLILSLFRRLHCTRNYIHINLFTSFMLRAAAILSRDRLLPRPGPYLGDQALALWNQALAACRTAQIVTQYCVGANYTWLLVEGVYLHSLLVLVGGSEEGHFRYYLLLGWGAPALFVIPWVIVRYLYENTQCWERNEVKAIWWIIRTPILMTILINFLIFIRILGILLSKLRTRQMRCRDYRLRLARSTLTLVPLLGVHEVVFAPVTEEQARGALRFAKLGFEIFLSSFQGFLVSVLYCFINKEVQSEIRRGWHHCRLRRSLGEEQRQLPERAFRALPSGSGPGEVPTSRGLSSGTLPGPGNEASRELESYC
# Procedure: as §1, §2, §3, §4, §5, §6, §7, §8, §9, §10
# (§26) and all values were normalized to that of the wild-type (WT). […]
# as §14
# (§27) of the WT and dose-response curves were analyzed using a three-parameter logistic equation. […]
# (§28) curves were analyzed using a three-parameter logistic equation to obtain pEC50 and Emax values. […]
# as §24
# GLP-1R = biological target: T7, GLP-1R (Homo sapiens, UniProt P43220); test: cAMP accumulation, wild-type GLP-1R; details: GLP-1R WT, HEK-293T, TR-FRET, mean ± S.E.M.
# T7 construct: expressed in transfected cells; host or cells: HEK-293T
# T7 sequence (P43220 24-463): as the sequence (P43220 24-463 W214A) above, with A191W counted along it
# Procedure: as §1, §2, §3, §4, §5, §6, §7, §8, §9, §10, §26, §14, §27, §28, §24
# GIPR mutants [6] = biological target: T8, GIPR mutants (Homo sapiens, UniProt P48546, F127A); test: cAMP accumulation, single-point mutated GIPR; details: GIPR F127(1.29b)A; HEK-293T, 40 min, TR-FRET; mean ± S.E.M., n at least 3
# T8 construct: expressed in transfected cells; host or cells: HEK-293T
# T8 sequence (P48546 22-466 F127A): as the sequence (P48546 22-466) above, with F106A counted along it
# Procedure: as §1, §2, §3, §4, §5, §6, §7, §8, §9, §10, §11, §12, §13, §14, §15, §16, §17, §18, §19, §20, §21, §22, §23, §24, §25
# GIPR mutants [7] = biological target: T9, GIPR mutants (Homo sapiens, UniProt P48546, P195K); test: cAMP accumulation, single-point mutated GIPR; details: GIPR P195(2.72b)K, relative to WT; pEC50 and Emax N.D. (incomplete curve fits)
# T9 construct: expressed in transfected cells; host or cells: HEK-293T
# T9 sequence (P48546 22-466 P195K): as the sequence (P48546 22-466) above, with P174K counted along it
# Procedure: as §1, §2, §3, §4, §5, §6, §7, §8, §9, §10, §11, §12, §13, §14, §15, §16, §17, §18, §19, §20, §21, §22, §23, §24, §25
# GIPR mutants [8] = biological target: T10, GIPR mutants (Homo sapiens, UniProt P48546, E288T); test: cAMP accumulation, single-point mutated GIPR; details: GIPR E288(45.52b)T, HEK-293T, 40 min, TR-FRET, mean ± S.E.M., n at least 3
# T10 construct: expressed in transfected cells; host or cells: HEK-293T
# T10 sequence (P48546 22-466 E288T): as the sequence (P48546 22-466) above, with E267T counted along it
# Procedure: as §1, §2, §3, §4, §5, §6, §7, §8, §9, §10, §11, §12, §13, §14, §15, §16, §17, §18, §19, §20, §21, §22, §23, §24, §25
# GIPR mutants [9] = biological target: T11, GIPR mutants (Homo sapiens, UniProt P48546, E354A); test: cAMP accumulation, single-point mutated GIPR; details: GIPR E354(6.53b)A; HEK-293T, 40 min, TR-FRET; mean ± S.E.M., n at least 3
# T11 construct: expressed in transfected cells; host or cells: HEK-293T
# T11 sequence (P48546 22-466 E354A): as the sequence (P48546 22-466) above, with E333A counted along it
# Procedure: as §1, §2, §3, §4, §5, §6, §7, §8, §9, §10, §11, §12, §13, §14, §15, §16, §17, §18, §19, §20, §21, §22, §23, §24, §25
# GIPR mutants [10] = biological target: T12, GIPR mutants (Homo sapiens, UniProt P48546, W209A); test: cAMP accumulation, single-point mutated GIPR; details: GIPR W209(ECL1)A; HEK-293T, 40 min, TR-FRET; mean ± S.E.M., n at least 3
# T12 construct: expressed in transfected cells; host or cells: HEK-293T
# T12 sequence (P48546 22-466 W209A): as the sequence (P48546 22-466) above, with W188A counted along it
# Procedure: as §1, §2, §3, §4, §5, §6, §7, §8, §9, §10, §11, §12, §13, §14, §15, §16, §17, §18, §19, §20, §21, §22, §23, §24, §25
smiles,measurement,setting,value
CC[C@H](C)[C@H](NC(=O)[C@H](Cc1ccccc1)NC(=O)[C@H](C)NC(=O)C(C)(C)NC(=O)[C@H](CCC(N)=O)NC(=O)[C@H](C)NC(=O)[C@H](CCCCNC(=O)COCCOCCNC(=O)CC[C@H](NC(=O)CCCCCCCCCCCCCCCCCCC(=O)O)C(=O)O)NC(=O)[C@H](CCCCN)NC(=O)[C@H](CC(=O)O)NC(=O)[C@H](CC(C)C)NC(=O)[C@](C)(CC(C)C)NC(=O)[C@@H](NC(=O)[C@H](CO)NC(=O)[C@H](Cc1ccc(O)cc1)NC(=O)[C@H](CC(=O)O)NC(=O)[C@H](CO)NC(=O)[C@@H](NC(=O)[C@H](Cc1ccccc1)NC(=O)[C@@H](NC(=O)CNC(=O)[C@H](CCC(N)=O)NC(=O)C(C)(C)NC(=O)[C@@H](N)Cc1ccc(O)cc1)[C@@H](C)O)[C@@H](C)O)[C@@H](C)CC)C(=O)N[C@@H](CCC(=O)O)C(=O)N[C@@H](Cc1ccc(O)cc1)C(=O)N[C@@H](CC(C)C)C(=O)N[C@@H](CC(C)C)C(=O)N[C@@H](CCC(=O)O)C(=O)NCC(=O)NCC(=O)N1CCC[C@H]1C(=O)N[C@@H](CO)C(=O)N[C@@H](CO)C(=O)NCC(=O)N[C@@H](C)C(=O)N1CCC[C@H]1C(=O)N1CCC[C@H]1C(=O)N1CCC[C@H]1C(=O)N[C@@H](CO)C(N)=O [retatrutide],EC50,GLP-1R mutants [1],5.62 pM
same,Emax ± S.E.M. (% WT),GLP-1R mutants [1],100.98 ± 3.27 % WT
same,EC50,GLP-1R mutants [2]; ****P < 0.0001,355 pM
same,Emax ± S.E.M. (% WT),GLP-1R mutants [2]; ***P < 0.001,73.89 ± 5.95 % WT
same,Emax ± S.E.M. (% WT),GLP-1R mutants [3],102.36 ± 4.73 % WT
same,EC50,GLP-1R mutants [3]; ****P < 0.0001,83.2 pM
same,Emax ± S.E.M. (% WT),GLP-1R mutants [4],101.39 ± 3.58 % WT
same,EC50,GLP-1R mutants [4]; **P < 0.01,38.9 pM
same,Emax ± S.E.M. (% WT),GLP-1R mutants [5],101.35 ± 4.70 % WT
same,EC50,GLP-1R mutants [5]; **P < 0.01,38.9 pM
same,EC50,"GIPR; GIPR WT, at least 3 independent experiments in quadruplicate",2.29 pM
same,Emax ± S.E.M. (% WT),GIPR; n at least 3,100.00 ± 2.84 % WT
same,Emax ± S.E.M. (% WT),"GLP-1R; 40 min, n at least 3",100.00 ± 2.75 % WT
same,EC50,"GLP-1R; 40 min stimulation, at least 3 independent experiments in quadruplicate",8.91 pM
same,EC50,GIPR mutants [6],4.17 pM
same,Emax ± S.E.M. (% WT),GIPR mutants [6],99.67 ± 4.00 % WT
same,change of GIPR-mediated cAMP accumulation by mutation,GIPR mutants [7],markedly decreased
same,Emax ± S.E.M. (% WT),GIPR mutants [8],100.81 ± 2.93 % WT
same,EC50,GIPR mutants [8]; **P < 0.01,8.91 pM
same,EC50,GIPR mutants [9],5.89 pM
same,Emax ± S.E.M. (% WT),GIPR mutants [9],99.43 ± 4.28 % WT
same,EC50,GIPR mutants [10],2 pM
same,Emax ± S.E.M. (% WT),GIPR mutants [10],100.17 ± 3.21 % WT
